Earlier results, collected in patent publication US20110274652A1, “Methods for Treating Hepatitis C Virus Infection” (VERTEX PHARMACEUTICALS INCORPORATED, priority 2008, published 2011).

Tested on: Hepatitis C virus
Conditions: interferon alfa monotherapy, chronic hepatitis C

interferon alfa
cases with long term remission: ~25%
